In PubChem BioAssay (NCI):
Where “and” joins values, the source holds several entries; their conditions need not be identical. Equal values may be shown once.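 A five-concentration, 48-hour dose response in 96-well plates underlies each endpoint, interpolated linearly between surrounding concentrations. Abbreviation: GI50, concentration required for 50% inhibition of growth. TGI: total growth inhibition.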

What was measured:
Experiment in all cases: NCI tumour cell line growth inhibition, 48 h
[1] = tested on: HT29 colon
[2] = tested on: A498 renal
[3] = tested on: A549 NSCLC
[4] = tested on: UO-31 renal
[5] = tested on: RPMI-8226 leukemia
[6] = tested on: NCI-H23 lung
[7] = tested on: SK-MEL-2 melanoma
[8] = tested on: HOP-92 NSCLC
[9] = tested on: SF-539 CNS
[10] = tested on: SW-620 colon

Row | Compound | TGI [1] | TGI [2] | TGI [3] | TGI [4] | TGI [5] [µM] | TGI [6] [µM] | TGI [7] [µM] | TGI [8] | TGI [9] | TGI [10] | GI50 [1] [µM] | GI50 [2] [µM] | GI50 [3] [µM] | GI50 [4] [µM] | GI50 [5] | GI50 [6] [µM] | GI50 [7] [µM] | GI50 [8] [µM] | GI50 [9] [µM] | GI50 [10] [µM]
1 | CSC(=S)N/N=C/c1nccc2ccccc12 | > 67.5 µM | 13.6 µM | 9.87 µM | 9.4 µM | 11.6 | 5.03 | 5.89 | 6.36 µM | 4.83 µM | 18.8 µM | – | – | – | – | – | – | – | – | – | –
2 | O=c1oc2ccc(I)cc2c(=O)n1-c1ccc(Cl)cc1F | 18.7 µM | 0.7 µM | > 100 µM | 3.24 µM | 6.12 | 7.68 | 3.43 | 0.726 µM | 6.71 µM | 88.2 µM | 3.4 | 0.141 | 2.87 | 0.301 | 0.758 µM | 1.61 | 0.582 | 0.181 | 0.988 | 2.02
3 | O=C(Nc1ccc(Cl)c(Cl)c1)NS(=O)(=O)c1cnccc1Oc1ccc(F)cc1 | > 100 µM | > 100 µM | 52 µM | 9.51 µM | 5.36 | 24.5 | > 100 | 8.47 µM | 24.6 µM | > 100 µM | 3.63 | > 100 | 9.92 | 2.62 | 2.01 µM | 3.37 | 4.71 | 2.77 | 3.64 | 3.01
4 | COC(=O)C1(O)CC(=O)CCC1c1ccc(OC)cc1 (stereo not given) | > 100 µM | > 100 µM | > 100 µM | > 100 µM | > 100 | > 100 | > 100 | > 100 µM | > 100 µM | > 100 µM | – | – | – | – | – | – | – | – | – | –
5 | CN1/C(=C\C=C\C2=[N+](C)c3ccccc3C2(C)C)C(C)(C)c2ccccc21 | 1.49 µM | 0.979 µM | 13.5 µM | 3.23 µM | 1.33 | 0.529 | 1.14 | 0.58 µM | 5.91 µM | 3.79 µM | 0.0444 | 0.0556 | 0.0413 | 0.229 | 0.0119 µM | 0.0189 | 0.212 | 0.128 | 0.224 | 0.136
6 | Nc1ncnc2c1ncn2CC(O)CO (stereo not given) | > 100 µM | > 100 µM | > 100 µM | > 100 µM | > 100 | > 100 | > 100 | > 100 µM | > 100 µM | > 100 µM | – | – | – | – | – | – | – | – | – | –
7 | O=S(=O)(CCCl)c1ccc(Cl)cc1 | 13.8 µM | 9.94 µM | 45.6 µM | 8.16 µM | 12 | 20.6 | 5.55 | 6.57 µM | 7.08 µM | 11.6 µM | 3.23 | 2.26 | 13 | 2.45 | 2.8 µM | 4.79 | 2.17 | 2.2 | 2.46 | 2.43
8 | Cn1c2ccccc2c(=O)c2c(O)cc3c(c21)C=CC1(CCCCC1)O3 | > 10 µM | > 10 µM | > 10 µM | > 10 µM | > 10 | > 10 | > 10 | > 10 µM | > 10 µM | > 10 µM | – | – | – | – | – | – | – | – | – | –
9 | CC(=O)OCC1OC(N2C(=O)C(=O)c3ccccc32)C(OC(C)=O)C(OC(C)=O)C1OC(C)=O (stereo not given) | > 100 µM | > 100 µM | > 100 µM | > 100 µM | > 100 | > 100 | > 100 | > 100 µM | > 100 µM | > 100 µM | – | – | – | – | – | – | – | – | – | –
10 | Cc1cc(I)cc(CN(C)CCCN2CCCC2)c1O | 24.4 µM | 33.6 µM | > 100 µM | > 60.9 µM | 37.5 | > 100 | 40.4 | 59.1 µM | 31 µM | 35.4 µM | 9.52 | 14.8 | 29.9 | 20 | 15.6 µM | 30 | 20.6 | 15.8 | 15.3 | 15.9
11 | COc1ccc(C(=O)c2ccc([As]=O)cc2)cc1 (stereo not given) | 0.236 µM | 0.305 µM | 0.348 µM | 0.204 µM | 0.0643 | 0.322 | 0.373 | 0.262 µM | 0.163 µM | 0.111 µM | 0.0489 | 0.164 | 0.158 | 0.0696 | 0.0224 µM | 0.108 | 0.173 | 0.13 | 0.0432 | 0.0313
12 | CC(=O)/C(=C/c1ccccc1F)C(=O)c1ccccc1 | > 100 µM | > 100 µM | > 100 µM | > 100 µM | 44.4 | > 100 | 93.8 | > 100 µM | > 100 µM | 56.1 µM | – | – | – | – | – | – | – | – | – | –
13 | CC(C)(C)c1cc(C=C(C#N)C#N)cc(C(C)(C)C)c1O | 7.81 µM and 10.6 µM | 3.83 µM and 1.76 µM | 24.3 µM and 71.4 µM | 0.891 µM and 3.7 µM | – | – | 1.39 | 0.768 µM and 0.139 µM | 10.2 µM and 3.24 µM | 30.9 µM and 45.4 µM | 0.33 | 0.158 | – | – | 0.101 µM and 0.0877 µM | 0.194 | – | 0.212 | 0.376 | 0.462
14 | CCOC(=O)/C(C#N)=C\C=C(/Cl)c1ccc(Cl)cc1 | > 100 µM | > 79.3 µM | 90.4 µM | 35.4 µM | 29.8 | 26.9 | > 91.6 | 47.2 µM | 33.9 µM | 26.3 µM | 24 | 32.3 | 30.4 | 18 | 3.71 µM | 12.2 | 27.7 | 17.5 | 11.3 | 5.94
15 | Cc1nc(C(N)=S)sc1C(=O)/C=C/c1c(O)ccc2ccccc12 | > 100 µM | > 100 µM | > 100 µM | > 100 µM | > 93.5 | > 100 | > 100 | > 100 µM | > 100 µM | > 100 µM | – | – | – | – | – | – | – | – | – | –
16 | CCNC(=O)COc1ccc(Cl)cc1Cl | > 100 µM | > 100 µM | > 100 µM | > 100 µM | > 100 | > 100 | > 100 | > 100 µM | > 100 µM | > 100 µM | – | – | – | – | – | – | – | – | – | –
17 | Oc1ccccc1-c1nn(CNc2ccccc2Cl)c(=S)o1 | 63.8 µM | > 100 µM | > 100 µM | > 100 µM | 59.6 | > 100 | > 100 | 66.2 µM | 97.7 µM | > 100 µM | 21 | > 100 | > 100 | > 100 | 20.2 µM | > 100 | > 100 | 16.4 | 37.7 | 41.9
